Experimental data taken from patent US7084137B2, “Thiazines and thiazoles as agents for protecting materials” (Bayer Aktiengesellschaft, priority 2001, dated 2006).
≈ marks a conversion by molar mass, not a printed value.

How the values were obtained:
Bacillus subtilis = experiment: Minimum inhibitory concentration (MIC) against bacteria on nutrient agar; assay type: cell-based; conditions: 3 days of incubation at 28° C., 60 to 70% relative atmospheric humidity; for MIC: Bacillus subtilis, 72 h
Protocol: The active compounds according to the invention are in each case added, in concentrations of from 0.1 mg/ml to 5000 mg/ml, to a chemically defined nutrient agar. The MIC is determined after 3 days of incubation at 28° C. and 60 to 70% relative atmospheric humidity.

Chaetomium globosum = experiment: Minimum inhibitory concentration (MIC) against fungi on malt extract agar; assay type: cell-based; conditions: 2 weeks of incubation at 28° C., 60 to 70% relative atmospheric humidity; for MIC: Chaetomium globosum, 336 h
Protocol: (§1) The active compounds according to the invention are in each case added, in concentrations of from 0.1 mg/l to 5000 mg/l, to an agar which is prepared using malt extract. The MIC is determined after 2 weeks of incubation at 28° C. and 60 to 70% relative atmospheric humidity.

Penicillium brevicaule = experiment: as above; assay type: cell-based; conditions: 2 weeks of incubation at 28° C., 60 to 70% relative atmospheric humidity; for MIC: Penicillium, 336 h
Protocol: as §1

Aspergillus niger = experiment: as above; assay type: cell-based; conditions: 2 weeks of incubation at 28° C., 60 to 70% relative atmospheric humidity; for MIC: Aspergillus niger, 336 h
Protocol: as §1

[1] = system: mould fungi (Alternaria tenius, Aspergillus flavus, Aspergillus niger, Aspergillus ustus, Cindosporum herbarum, Paecilomyces variotii, Penicillium citrium …); experiment: Test of dispersion coatings for resistance to mould; conditions: coatings according to recipe A containing 1.5% (based on solids) of compound; even after leaching out and wind tunnel exposure; 2–3 weeks storage
Protocol: To test dispersion coatings for resistance to mould, the following procedure is adopted:
The paint to be tested is applied to both sides of a suitable base. To obtain results which are close to practice, some of the test specimens are leached out with running water (24 h, 20° C.) before the test for mould resistance; others are treated with a current of warm fresh air (7 days, 40° C.).
The samples prepared in this way are then placed on an agar nutrient medium, and both samples and nutrient medium are contaminated with fungal spores. After 2–3 weeks storage (29±1° C., 80–90% rel. atmospheric humidity), the samples are compared.
The coating is considered to be permanently mould-resistant if the sample remains free from fungus or at most a slightly border infestation can be detected.
For the contamination, fungal spores of the following mould fungi are used, which are known as paint destroyers or are frequently encountered on coatings: • Alternaria tenius • Aspergillus flavus • Aspergillus niger • Aspergillus ustus • Cindosporum herbarum • Paecilomyces variotii • Penicillium citrium • Aureobasidium pullulans • Stachybotrys chartarum
Recipe A: Exterior dispersion paint based on Acroal 290 D (styrene acrylate)

Row | SMILES | MIC (Chaetomium globosum) [µg/mL] | MIC (Penicillium brevicaule) [µg/mL] | MIC (Aspergillus niger) [µg/mL] | Minimum inhibitory concentration, Chaetomium globosum (Chaetomium globosum) [ppm] | Minimum inhibitory concentration, Penicillium brevicaule (Penicillium brevicaule) [ppm] | further results
1 | C=CCSC1=NCCS1 [CAS No. 3571-74-2, 2-[allylsulfanyl]-4,5-dihydro-1,3-thiazole] | – | – | – | – | – | MIC (Bacillus subtilis): 200 µg/mL (≈ 1260 µM)
2 | Clc1ccc(SC2=NCCCS2)cc1 [CAS No. 10554-28-6, 2-[(4-chlorophenyl)sulfanyl]-5,6-dihydro-4H-1,3-thiazine] | < 200 | < 200 | < 400 | – | – | –
3 | Clc1ccccc1SC1=NCCCS1 [CAS No. 55545-14-7, 2-[(2-chlorophenyl)sulfanyl]-5,6-dihydro-4H-1,3-thiazine] | < 200 | < 200 | < 200 | – | – | –
4 | c1ccc(SC2=NCCCS2)cc1 [CAS No. 73122-32-4, 2-(phenylsulfanyl)-5,6-dihydro-4H-1,3-thiazine] | < 200 | < 200 | < 300 | – | – | MIC (Bacillus subtilis): < 100 µg/mL
5 | Clc1cccc(SC2=NCCCS2)c1 [CAS No. 73122-33-5, 2-[(3-chlorophenyl)sulfanyl]-5,6-dihydro4H-1,3-thiazine] | < 200 | < 200 | 200 (≈ 820 µM) | – | – | –
6 | Clc1ccc(SC2=NCCCS2)cc1Cl [CAS No. 73122-34-6, 2-[(3,4-dichlorophenyl)sulfanyl]-5,6-dihydro-4H-1,3-thiazine] | < 100 | < 100 | 400 (≈ 1440 µM) | – | – | –
7 | Clc1ccc(SC2=NCCCS2)c(Cl)c1 [CAS No. 73122-35-7, 2-[(2,4-dichlorophenyl)sulfanyl]-5,6-dihydro-4H-1,3-thiazine] | – | – | – | – | – | MIC (Bacillus subtilis): < 40 µg/mL
8 | Clc1cc(Cl)cc(SC2=NCCCS2)c1 [CAS No. 73122-37-9, 2-[(3,5-dichlorophenyl)sulfanyl]-5,6-dihydro-4H-1,3-thiazine] | – | – | – | – | – | MIC (Bacillus subtilis): 100 µg/mL (≈ 359 µM)
9 | Brc1ccc(SC2=NCCCS2)cc1 [CAS No. 73122-41-5, 2-[(4-bromophenyl)sulfanyl]-5,6-dihydro-4H-1,3-thiazine] | < 200 | < 200 | < 300 | – | – | –
10 | Fc1ccc(SC2=NCCCS2)cc1 [CAS No. 73122-42-6, 2-[(4-fluorophenyl)sulfanyl]-5,6-dihydro-4H-1,3-thiazine] | < 100 | < 50 | 100 (≈ 440 µM) | – | – | –
11 | Cc1ccc(SC2=NCCCS2)cc1 [CAS No. 73122-44-8, 2-[(4-methylphenyl)sulfanyl]-5,6-dihydro4H-1,3-thiazine] | < 200 | < 100 | < 250 | – | – | –
12 | Cc1cccc(SC2=NCCCS2)c1 [CAS No. 73122-45-9, 2-[(3-methylphenyl)sulfanyl]-5,6-dihydro4H-1,3-thiazine] | < 100 | < 100 | < 200 | – | – | –
13 | Cc1ccccc1SC1=NCCCS1 [CAS No. 73122-46-0, 2-[(2-methylphenyl)sulfanyl]-5,6-dihydro-4H-1,3-thiazine] | < 200 | 100 (≈ 448 µM) | 200 (≈ 895 µM) | – | – | –
14 | CC(C)(C)c1ccc(SC2=NCCCS2)cc1 [CAS No. 73122-48-2, 2-[(4-tert-butylphenyl)sulfanyl]-5,6-dihydro-4H-1,3-thiazine] | < 100 | < 100 | 100 (≈ 377 µM) | – | – | –
15 | COc1ccc(SC2=NCCCS2)cc1 [CAS No. 73122-49-3, 2-[(4-methoxyphenyl)sulfanyl]-5,6-dihydro-4H-1,3-thiazine] | < 400 | < 300 | < 400 | – | – | –
16 | CN(C)c1ccc(SC2=NCCCS2)cc1 [CAS No. 73122-51-7, 4-(5,6-dihydro-4H-1,3-thiazin-2-ylsulfanyl)-N,N-dimethylaniline] | < 100 | 100 (≈ 396 µM) | 200 (≈ 792 µM) | – | – | –
17 | O=[N+]([O-])c1ccc(SC2=NCCCS2)cc1 [CAS No. 73122-52-8, 2-[(4-nitrophenyl)sulfanyl]-5,6-dihydro-4H-1,3-thiazine] | < 100 | < 200 | < 150 | – | – | –
18 | Clc1ccc(SC2=NCCS2)cc1 [CAS No. 103482-92-4, 2-[4-chlorophenylsulfanyl]-4,5-dihydro-1,3-thiazole] | < 200 | 200 (≈ 870 µM) | – | – | – | –

Row | SMILES | MIC (Chaetomium globosum) [µg/mL] | MIC (Penicillium brevicaule) [µg/mL] | MIC (Aspergillus niger) [µg/mL] | Minimum inhibitory concentration, Chaetomium globosum (Chaetomium globosum) [ppm] | Minimum inhibitory concentration, Penicillium brevicaule (Penicillium brevicaule) [ppm] | further results
19 | Clc1cccc(SC2=NCCS2)c1 [CAS No. 103482-93-5, 2-[3-chlorophenylsulfanyl]-4,5-dihydro-1,3-thiazole] | < 200 | 200 (≈ 870 µM) | – | – | – | –
20 | O=[N+]([O-])c1ccc(SC2=NCCS2)cc1 [CAS No. 103482-99-1, 2-[4-nitrophenylsulfanyl]-4,5-dihydro-1,3-thiazole] | < 200 | < 200 | – | – | – | –
21 | COC(=O)C1CSC(SC(C)C)=N1 (stereo not drawn) [Example 8] | – | – | – | – | – | Minimum inhibitory concentration, Bacillus subtilis (Bacillus subtilis): <200 ppm
22 | COC(=O)C1CSC(Sc2cccc(Cl)c2)=N1 (stereo not drawn) [Example 18] | – | – | – | 200 | – | –
23 | c1ccc(CSC2=NCCCS2)cc1 [Example 22] | – | – | – | – | – | Minimum inhibitory concentration, Bacillus subtilis (Bacillus subtilis): 100 ppm
24 | COc1cccc(SC2=NCCCS2)c1 [Example 25] | – | – | – | – | – | Mould resistance of coating [1]: mould-resistant
25 | COc1ccccc1SC1=NCCCS1 [Example 26] | – | – | – | 200 | 100 | –
26 | COc1ccccc1SC1=NCCCS1 [Example 36] | – | – | – | 100 | 100 | Minimum inhibitory concentration, Aspergillus niger (Aspergillus niger): 100 ppm
27 | Cc1cccc(C)c1SC1=NCCCS1 [Example 37] | – | – | – | <200 | 400 | –
28 | Fc1cccc(SC2=NCCCS2)c1 [Example 39] | – | – | – | <100 | <100 | Minimum inhibitory concentration, Aspergillus niger (Aspergillus niger): 100 ppm
29 | FC(F)(F)c1ccc(SC2=NCCCS2)cc1 [Example 40] | – | – | – | <100 | <100 | Minimum inhibitory concentration, Aspergillus niger (Aspergillus niger): <250 ppm
30 | Oc1cccc(SC2=NCCCS2)c1 [Example 41] | – | – | – | 200 | 100 | –
31 | COc1ccc(SC2=NCCCS2)cc1OC [Example 42] | – | – | – | 100 | <200 | Minimum inhibitory concentration, Aspergillus niger (Aspergillus niger): 500 ppm
32 | CCc1ccc(SC2=NCCCS2)cc1 [Example 44] | – | – | – | <100 | <100 | Minimum inhibitory concentration, Aspergillus niger (Aspergillus niger): 100 ppm
33 | c1ccc(Oc2ccc(SC3=NCCCS3)cc2)cc1 [Example 45] | – | – | – | <100 | 100 | –
34 | c1ccc(-c2cccc(SC3=NCCCS3)c2)cc1 [Example 48] | – | – | – | <100 | 200 | –
35 | c1cc(C2CC2)ccc1SC1=NCCCS1 [Example 49] | – | – | – | <100 | <100 | Minimum inhibitory concentration, Aspergillus niger (Aspergillus niger): 100 ppm
